Laboratory results from ChEMBL document CHEMBL3808348, “Rational Design, Synthesis, and Biological Evaluation of 7-Azaindole Derivatives as Potent Focused Multi-Targeted Kinase Inhibitors” (J Med Chem, 2016).

Experiments:
[1] = biological target: Tyrosine-protein kinase FRK (Homo sapiens, UniProt P42685); experiment: Inhibition of GST-tagged full length human recombinant FRK expressed in baculovirus using Fluorescein-Poly GT as substrate
[2] = system: Tyrosine-protein kinase ABL1 (Homo sapiens), P00519 [E255K]; experiment: Inhibition of His-tagged full length human recombinant ABL E255K mutant expressed in baculovirus using Fluorescein-Poly GT as substrate at 100 nM
[3] = biological target: Ribosomal protein S6 kinase beta-1 (Homo sapiens) (UniProt P23443); conditions: 100 nM
Description: Inhibition of GST-tagged human recombinant p70S6K (1 to 421 residues) expressed in baculovirus using Fluorescein-Crosstide as substrate at 100 nM

[4] = biological target: Myotonin-protein kinase (Homo sapiens) (UniProt Q09013); conditions: 100 nM
Description: Inhibition of full length GST-tagged human recombinant DMPK expressed in baculovirus expression system at 100 nM

[5] = biological target: Tyrosine-protein kinase HCK (Homo sapiens, UniProt P08631); experiment: Inhibition of GST-tagged full length human recombinant HCK expressed in baculovirus using Fluorescein-Poly GT as substrate at 100 nM
[6] = biological target: Tyrosine-protein kinase BTK (Homo sapiens) (UniProt Q06187); conditions: 100 nM
Description: Inhibition of His-tagged full length human recombinant BTK expressed in baculovirus using Fluorescein-Poly GT as substrate at 100 nM

[7] = biological target: Tyrosine-protein kinase Fyn (Homo sapiens, UniProt P06241); conditions: 100 nM
Description: Inhibition of His-tagged full length human recombinant FYN expressed in baculovirus using Fluorescein-Poly GT as substrate at 100 nM

[8] = biological target: Tyrosine-protein kinase Lyn (Homo sapiens, UniProt P07948); experiment: Inhibition of GST-tagged full length human recombinant LYNA expressed in baculovirus using Fluorescein-Poly GT as substrate at 100 nM
[9] = biological target: Serine/threonine-protein kinase mTOR (Homo sapiens) (UniProt P42345); conditions: 100 nM
Description: Inhibition of GST-tagged human recombinant mTOR (1360 to 2549 residues) expressed in baculovirus using GFP-4E -BP1 as substrate at 100 nM

[10] = system: HUVEC; experiment: Antiangiogenic activity in HUVEC after 72 hrs by MTT assay; format: functional, cell-based; conditions: Homo sapiens
[11] = biological target: High affinity nerve growth factor receptor (Homo sapiens) (UniProt P04629); conditions: 100 nM
Description: Inhibition of His-tagged human recombinant TRKA (441 to 796 residues) expressed in baculovirus using Fluorescein-Poly GT as substrate at 100 nM

[12] = Antiangiogenic activity in HRMEC after 72 hrs by MTT assay; format: functional, Homo sapiens
[13] = biological target: Bcr/Abl fusion protein (Homo sapiens, UniProt P00519); format: cell-based, BaF3
Description: Inhibition of human wild type BCR-ABL expressed in mouse BAF3 cells assessed as inhibition of cell proliferation after 72 hrs by MTT assay

[14] = biological target: Tyrosine-protein kinase CSK (Homo sapiens) (UniProt P41240); conditions: 100 nM
Description: Inhibition of His-tagged full length human recombinant CSK expressed in Escherichia coli using Fluorescein-Poly GT as substrate at 100 nM

[15] = biological target: Platelet-derived growth factor receptor beta (Homo sapiens) (UniProt P09619); conditions: 100 nM
Description: Inhibition of His-tagged human recombinant PDGFRbeta (558 to 1106 residues) expressed in baculovirus using Fluorescein-Poly GT as substrate at 100 nM

[16] = system: HepG2; experiment: Antiproliferative activity against human HepG2 cells after 72 hrs by MTT assay; format: functional, cell-based; conditions: HepG2, 72 h
[17] = system: Tyrosine-protein kinase ABL1 (Homo sapiens), P00519 [G250E]; experiment: Inhibition of His-tagged full length human recombinant ABL G250E mutant expressed in baculovirus using Fluorescein-Poly GT as substrate at 100 nM
[18] = Antiproliferative activity against human BxPC3 cells after 72 hrs by MTT assay; format: functional, cell-based; conditions: BXPC-3, 72 h
[19] = system: Epidermal growth factor receptor (Homo sapiens), P00533 [T790M]; conditions: 100 nM
[20] = Tmax in Swiss mouse plasma at 2 mg/kg, iv by LC/MS/MS analysis; format: ADME, organism-based
[21] = biological target: Proto-oncogene tyrosine-protein kinase ROS (Homo sapiens) (UniProt P08922); conditions: 100 nM
Description: Inhibition of GST-tagged human recombinant ROS1 (1883 to 2347 residues) expressed in baculovirus using Fluorescein-Poly GT as substrate at 100 nM

[22] = biological target: Phosphatidylinositol 4,5-bisphosphate 3-kinase catalytic subunit alpha isoform (Homo sapiens) (UniProt P42336); conditions: 100 nM
Description: Inhibition of PI3Kalpha (unknown origin) at 100 nM

[23] = biological target: Platelet-derived growth factor receptor alpha (Homo sapiens, UniProt P16234); conditions: 100 nM
Description: Inhibition of GST-tagged human recombinant PDGFRalpha (550 to 1089 residues) expressed in baculovirus using Fluorescein-Poly GT as substrate at 100 nM

[24] = biological target: MAP kinase-activated protein kinase 2 (Homo sapiens) (UniProt P49137); conditions: 100 nM
Description: Inhibition of His-tagged full length human recombinant MAPKAPK2 expressed in Escherichia coli using Fluorescein-CREBtide as substrate at 100 nM

[25] = biological target: Leukocyte tyrosine kinase receptor (Homo sapiens) (UniProt P29376); conditions: 100 nM
Description: Inhibition of GST-tagged human recombinant TYK1 (450 to 864 residues) expressed in baculovirus using Fluorescein-Poly GT as substrate at 100 nM

[26] = system: NCI-H1975; experiment: Antiproliferative activity against human NCI-H1975 cells harboring EGFR L858R/T790M double mutant after 72 hrs by MTT assay; format: functional, cell-based; conditions: NCI-H1975, 72 h
[27] = biological target: RAC-beta serine/threonine-protein kinase (Homo sapiens) (UniProt P31751); conditions: 100 nM
Description: Inhibition of full length His-tagged human recombinant AKT2 expressed in baculovirus using Fluorescein-Crosstide as substrate at 100 nM

[28] = biological target: Non-receptor tyrosine-protein kinase TYK2 (Homo sapiens) (UniProt P29597); conditions: 100 nM
Description: Inhibition of GST-tagged human recombinant TYK2 (832 to 1187 residues) expressed in baculovirus using Fluorescein-Poly GT as substrate at 100 nM

[29] = biological target: Vascular endothelial growth factor receptor 2 (Homo sapiens) (UniProt P35968); experiment: Inhibition of full length His-tagged human recombinant VEGFR2 expressed in baculovirus using Fluorescein-Poly GT as substrate at 100 nM
[30] = biological target: Aurora kinase C (Homo sapiens) (UniProt Q9UQB9); conditions: 100 nM
Description: Inhibition of full length His-tagged human recombinant Aurora C expressed in baculovirus using Fluorescein-CREBtide as substrate at 100 nM

[31] = biological target: Ephrin type-A receptor 1 (Homo sapiens) (UniProt P21709); conditions: 100 nM
Description: Inhibition of GST-tagged human recombinant EPHA1 (568 to 976 residues) expressed in baculovirus using Fluorescein-Poly GT as substrate at 100 nM

[32] = biological target: Insulin receptor-related protein (Homo sapiens) (UniProt P14616); conditions: 100 nM
Description: Inhibition of GST-tagged human recombinant INSRR (944 to 1297 residues) expressed in baculovirus using Fluorescein-Poly GT as substrate at 100 nM

[33] = biological target: Protein kinase C theta type (Homo sapiens) (UniProt Q04759); conditions: 100 nM
Description: Inhibition of full length His-tagged human recombinant PKCtheta expressed in baculovirus using Fluorescein-PKC as substrate at 100 nM

[34] = biological target: Cyclin-dependent kinase 5/CDK5 activator 1 (Homo sapiens) (UniProt Q00535+Q15078); conditions: 100 nM
Description: Inhibition of CDK5/p25 (unknown origin) at 100 nM

[35] = biological target: MAP kinase-activated protein kinase 5 (Homo sapiens) (UniProt Q8IW41); conditions: 100 nM
Description: Inhibition of His-tagged full length human recombinant MAPKAPK5 expressed in baculovirus at 100 nM

[36] = biological target: Inhibitor of nuclear factor kappa-B kinase subunit beta (Homo sapiens) (UniProt O14920); conditions: 100 nM
Description: Inhibition of GST-tagged full length human recombinant IKKbeta expressed in baculovirus using Fluorescein-Poly GT as substrate at 100 nM

[37] = biological target: Protein kinase C gamma type (Homo sapiens) (UniProt P05129); conditions: 100 nM
Description: Inhibition of full length human recombinant PKCgamma expressed in baculovirus using Fluorescein-PKC as substrate at 100 nM

[38] = biological target: CDK2/Cyclin A2 (Homo sapiens) (UniProt P24941+P20248); conditions: 100 nM
Description: Inhibition of CDK2/cyclinA (unknown origin) at 100 nM

[39] = biological target: Tyrosine-protein kinase SYK (Homo sapiens) (UniProt P43405); conditions: 100 nM
Description: Inhibition of GST-tagged full length human recombinant SYK expressed in baculovirus using Fluorescein-Poly GT as substrate at 100 nM

[40] = Tmax in Swiss mouse plasma at 20 mg/kg, po by LC/MS/MS analysis; format: ADME, organism-based
[41] = biological target: Focal adhesion kinase 1 (Homo sapiens) (UniProt Q05397); conditions: 100 nM
Description: Inhibition of full length GST-tagged human recombinant FAK expressed in baculovirus using Fluorescein-Poly GT as substrate at 100 nM

[42] = biological target: Macrophage-stimulating protein receptor (Homo sapiens) (UniProt Q04912); conditions: 100 nM
Description: Inhibition of GST-tagged human recombinant MST1R (983 to 1400 residues) expressed in baculovirus using Fluorescein-Poly GT as substrate at 100 nM

[43] = biological target: Macrophage colony-stimulating factor 1 receptor (Homo sapiens) (UniProt P07333); conditions: 100 nM
Description: Inhibition of His-tagged human recombinant CSF1R (538 to 910 residues) expressed in baculovirus using Fluorescein-Poly GT as substrate at 100 nM

[44] = biological target: Tyrosine-protein kinase Lck (Homo sapiens, UniProt P06239); experiment: Inhibition of His-tagged full length human recombinant LCK expressed in baculovirus using Fluorescein-Poly GT as substrate
Tyrosine-protein kinase Lck, sequence (P06239 whole entry): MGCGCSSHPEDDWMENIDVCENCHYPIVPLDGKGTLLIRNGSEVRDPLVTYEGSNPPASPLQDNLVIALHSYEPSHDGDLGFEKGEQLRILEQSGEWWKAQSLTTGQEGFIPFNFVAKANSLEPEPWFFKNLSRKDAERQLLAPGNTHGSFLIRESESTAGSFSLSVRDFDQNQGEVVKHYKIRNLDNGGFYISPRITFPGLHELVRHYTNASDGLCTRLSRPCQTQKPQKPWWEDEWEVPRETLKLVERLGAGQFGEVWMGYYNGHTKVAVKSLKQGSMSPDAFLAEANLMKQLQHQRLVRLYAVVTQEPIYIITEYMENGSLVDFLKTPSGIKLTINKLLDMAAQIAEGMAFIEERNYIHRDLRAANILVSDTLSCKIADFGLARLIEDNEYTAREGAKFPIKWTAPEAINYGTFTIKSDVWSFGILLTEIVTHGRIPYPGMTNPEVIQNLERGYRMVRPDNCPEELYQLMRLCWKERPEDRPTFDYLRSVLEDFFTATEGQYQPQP

Macrophage-stimulating protein receptor (Homo sapiens), sequence (Q04912 25-304 limits assumed): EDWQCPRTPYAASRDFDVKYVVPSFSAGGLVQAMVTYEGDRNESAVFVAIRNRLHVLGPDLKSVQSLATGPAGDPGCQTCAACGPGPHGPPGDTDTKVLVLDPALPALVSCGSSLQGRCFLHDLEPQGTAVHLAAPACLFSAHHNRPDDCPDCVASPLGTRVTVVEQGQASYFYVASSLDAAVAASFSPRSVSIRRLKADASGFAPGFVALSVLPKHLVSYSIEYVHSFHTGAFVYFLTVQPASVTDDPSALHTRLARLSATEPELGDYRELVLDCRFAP
Macrophage-stimulating protein receptor (Homo sapiens), sequence (Q04912 310-1400 limits assumed): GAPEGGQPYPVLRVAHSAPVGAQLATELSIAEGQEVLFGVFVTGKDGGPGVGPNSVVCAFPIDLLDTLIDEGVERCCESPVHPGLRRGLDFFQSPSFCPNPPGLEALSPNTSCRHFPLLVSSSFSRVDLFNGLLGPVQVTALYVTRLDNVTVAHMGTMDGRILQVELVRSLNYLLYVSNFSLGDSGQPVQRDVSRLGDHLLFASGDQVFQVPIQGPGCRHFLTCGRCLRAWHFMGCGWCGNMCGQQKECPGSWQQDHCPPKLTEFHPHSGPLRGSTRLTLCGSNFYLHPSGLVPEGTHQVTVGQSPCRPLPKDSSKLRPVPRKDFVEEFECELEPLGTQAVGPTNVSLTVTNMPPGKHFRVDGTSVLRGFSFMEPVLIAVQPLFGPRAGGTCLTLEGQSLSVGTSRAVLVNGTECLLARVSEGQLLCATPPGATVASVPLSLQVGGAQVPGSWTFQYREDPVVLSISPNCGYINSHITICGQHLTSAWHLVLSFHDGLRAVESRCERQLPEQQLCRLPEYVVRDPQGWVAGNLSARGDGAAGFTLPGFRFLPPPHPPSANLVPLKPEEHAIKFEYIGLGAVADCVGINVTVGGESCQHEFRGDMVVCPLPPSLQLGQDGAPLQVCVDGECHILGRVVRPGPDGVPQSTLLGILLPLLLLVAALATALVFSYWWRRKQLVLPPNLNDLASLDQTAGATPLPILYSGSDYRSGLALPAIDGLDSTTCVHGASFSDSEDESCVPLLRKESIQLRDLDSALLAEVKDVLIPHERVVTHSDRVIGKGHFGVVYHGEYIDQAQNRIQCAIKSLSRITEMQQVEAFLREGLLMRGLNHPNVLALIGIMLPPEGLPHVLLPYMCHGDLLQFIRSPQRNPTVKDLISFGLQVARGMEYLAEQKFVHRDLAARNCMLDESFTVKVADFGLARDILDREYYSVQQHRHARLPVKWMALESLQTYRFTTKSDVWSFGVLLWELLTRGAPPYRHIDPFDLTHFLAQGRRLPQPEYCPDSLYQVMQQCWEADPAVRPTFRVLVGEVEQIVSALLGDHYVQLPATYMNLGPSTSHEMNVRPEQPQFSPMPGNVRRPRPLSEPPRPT
Leukocyte tyrosine kinase receptor (Homo sapiens), sequence (P29376 whole entry): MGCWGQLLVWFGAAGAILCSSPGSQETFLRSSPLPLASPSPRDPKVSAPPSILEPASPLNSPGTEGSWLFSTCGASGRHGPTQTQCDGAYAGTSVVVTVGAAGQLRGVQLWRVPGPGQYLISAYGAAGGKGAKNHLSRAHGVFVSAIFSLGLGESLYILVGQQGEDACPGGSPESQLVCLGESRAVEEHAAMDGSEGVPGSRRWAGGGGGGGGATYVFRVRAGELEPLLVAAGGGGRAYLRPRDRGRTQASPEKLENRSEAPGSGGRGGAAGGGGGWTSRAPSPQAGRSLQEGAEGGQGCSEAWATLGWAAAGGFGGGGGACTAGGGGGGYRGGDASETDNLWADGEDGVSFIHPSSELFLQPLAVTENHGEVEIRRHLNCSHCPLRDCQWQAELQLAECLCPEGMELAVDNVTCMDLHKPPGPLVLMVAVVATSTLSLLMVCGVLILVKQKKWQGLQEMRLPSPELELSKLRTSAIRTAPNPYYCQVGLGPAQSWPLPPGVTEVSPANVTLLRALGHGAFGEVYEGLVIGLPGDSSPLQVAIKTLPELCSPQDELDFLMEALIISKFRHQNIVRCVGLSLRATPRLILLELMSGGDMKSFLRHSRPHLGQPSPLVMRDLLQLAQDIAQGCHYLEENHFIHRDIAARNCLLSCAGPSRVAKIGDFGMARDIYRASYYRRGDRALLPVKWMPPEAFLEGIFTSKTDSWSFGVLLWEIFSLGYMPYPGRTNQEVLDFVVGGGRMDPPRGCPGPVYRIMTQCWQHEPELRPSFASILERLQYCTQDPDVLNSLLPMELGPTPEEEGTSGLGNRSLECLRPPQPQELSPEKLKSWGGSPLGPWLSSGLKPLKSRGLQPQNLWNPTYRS
Epidermal growth factor receptor (Homo sapiens), P00533 [T790M], sequence (P00533 whole entry T790M): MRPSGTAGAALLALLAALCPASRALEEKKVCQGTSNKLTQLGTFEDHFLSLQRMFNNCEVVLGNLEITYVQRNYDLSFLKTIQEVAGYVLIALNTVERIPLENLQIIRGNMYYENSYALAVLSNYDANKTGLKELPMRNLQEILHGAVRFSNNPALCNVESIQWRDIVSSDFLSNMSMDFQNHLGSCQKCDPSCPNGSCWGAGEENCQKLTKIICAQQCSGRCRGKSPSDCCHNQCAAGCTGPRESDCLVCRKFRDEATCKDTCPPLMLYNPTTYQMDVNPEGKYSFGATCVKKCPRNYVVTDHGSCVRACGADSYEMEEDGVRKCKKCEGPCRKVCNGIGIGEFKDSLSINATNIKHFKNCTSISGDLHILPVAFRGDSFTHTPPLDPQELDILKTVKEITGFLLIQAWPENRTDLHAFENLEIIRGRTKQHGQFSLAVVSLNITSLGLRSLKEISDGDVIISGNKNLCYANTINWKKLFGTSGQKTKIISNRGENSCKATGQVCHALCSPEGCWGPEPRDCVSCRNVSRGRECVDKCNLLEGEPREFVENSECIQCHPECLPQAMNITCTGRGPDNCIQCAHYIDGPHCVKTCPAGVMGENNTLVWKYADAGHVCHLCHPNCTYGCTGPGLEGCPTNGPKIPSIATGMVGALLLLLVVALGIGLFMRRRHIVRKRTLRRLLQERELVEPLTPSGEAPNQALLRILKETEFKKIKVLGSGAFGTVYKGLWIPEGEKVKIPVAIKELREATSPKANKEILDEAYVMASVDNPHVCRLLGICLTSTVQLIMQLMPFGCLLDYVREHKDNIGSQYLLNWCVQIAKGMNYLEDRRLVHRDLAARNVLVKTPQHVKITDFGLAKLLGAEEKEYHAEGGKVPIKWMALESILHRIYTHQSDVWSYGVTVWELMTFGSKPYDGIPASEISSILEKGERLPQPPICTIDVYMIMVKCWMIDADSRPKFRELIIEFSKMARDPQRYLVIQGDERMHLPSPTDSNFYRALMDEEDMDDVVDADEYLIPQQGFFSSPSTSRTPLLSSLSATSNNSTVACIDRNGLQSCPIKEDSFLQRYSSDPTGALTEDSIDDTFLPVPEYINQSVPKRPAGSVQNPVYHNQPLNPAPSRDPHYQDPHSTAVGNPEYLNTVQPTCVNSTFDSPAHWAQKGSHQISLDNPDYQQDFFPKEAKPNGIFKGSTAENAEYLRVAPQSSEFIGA
MAP kinase-activated protein kinase 2 (Homo sapiens), sequence (P49137 whole entry, looked up): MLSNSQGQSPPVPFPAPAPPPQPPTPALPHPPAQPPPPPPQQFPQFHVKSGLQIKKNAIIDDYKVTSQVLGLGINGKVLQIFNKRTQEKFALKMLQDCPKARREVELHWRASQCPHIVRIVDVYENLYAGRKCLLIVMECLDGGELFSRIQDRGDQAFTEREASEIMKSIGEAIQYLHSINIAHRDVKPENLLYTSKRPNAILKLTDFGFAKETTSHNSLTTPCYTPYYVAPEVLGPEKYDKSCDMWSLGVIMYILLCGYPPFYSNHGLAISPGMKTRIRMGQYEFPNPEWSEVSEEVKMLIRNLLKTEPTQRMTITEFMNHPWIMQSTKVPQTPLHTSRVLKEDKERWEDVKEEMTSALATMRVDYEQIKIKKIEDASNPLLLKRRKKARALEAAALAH

COC(=O)c1cc2cc(NCc3cc(NC(=O)c4cc(-n5cnc(C)c5)cc(C(F)(F)F)c4)ccc3C)cnc2[nH]1
IC50 [1]: 62 nM | inhibition [2]: > 80% | inhibition [3]: < 40% | inhibition [4]: < 40% | inhibition [5]: > 80% | inhibition [6]: < 40% | inhibition [7]: < 40% | inhibition [8]: > 80% | inhibition [9]: < 40% | EC50 [10]: 34 nM | inhibition [11]: < 40% | EC50 [12]: 62 nM | EC50 [13]: 0.04 nM | inhibition [14]: < 40% | inhibition [15]: < 40% | EC50 [16]: 38 nM | inhibition [17]: > 80% | EC50 [18]: 35 nM | inhibition [19]: < 40% | Tmax [20]: 10 min | inhibition [21]: < 40% | inhibition [22]: < 40% | inhibition [23]: < 40% | inhibition [24]: < 40% | inhibition [25]: < 40% | EC50 [26]: 104 nM | inhibition [27]: < 40% | inhibition [28]: < 40% | inhibition [29]: 46% | inhibition [30]: < 40% | inhibition [31]: < 40% | inhibition [32]: < 40% | inhibition [33]: < 40% | inhibition [34]: < 40% | inhibition [35]: < 40% | inhibition [36]: < 40% | inhibition [37]: < 40% | inhibition [38]: < 40% | inhibition [39]: < 40% | Tmax [40]: 30 min | inhibition [41]: < 40% | inhibition [42]: < 40% | inhibition [43]: < 40% | IC50 [44]: 69 nM
